Marks after values point to notes of the source that are not given here.
Tests used:
α1B-adrenoceptors = biological target: T1, α1B-adrenoceptors (Mus musculus, UniProt P97717); assay: Functional bioassay, isolated mouse spleen, noradrenaline contraction; assay type: biochemical; settings: noradrenaline as agonist
T1 construct: The spleen was removed from male mice; from tissue; host or cells: isolated mouse spleen
T1 sequence (P97717 1-514): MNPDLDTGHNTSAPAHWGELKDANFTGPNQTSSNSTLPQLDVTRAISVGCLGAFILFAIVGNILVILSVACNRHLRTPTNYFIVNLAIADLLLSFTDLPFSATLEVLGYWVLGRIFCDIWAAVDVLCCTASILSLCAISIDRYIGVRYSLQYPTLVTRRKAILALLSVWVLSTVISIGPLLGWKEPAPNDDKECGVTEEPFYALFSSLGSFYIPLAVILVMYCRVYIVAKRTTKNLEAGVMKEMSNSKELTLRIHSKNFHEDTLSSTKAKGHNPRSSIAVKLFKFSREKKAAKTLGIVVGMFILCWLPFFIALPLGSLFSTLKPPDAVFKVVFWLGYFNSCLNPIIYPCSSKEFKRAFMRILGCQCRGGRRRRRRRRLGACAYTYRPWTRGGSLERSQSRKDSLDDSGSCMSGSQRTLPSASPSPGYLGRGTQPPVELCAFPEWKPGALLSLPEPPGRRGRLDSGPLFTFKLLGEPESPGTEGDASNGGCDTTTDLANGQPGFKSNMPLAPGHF
Method: The influence on α1B-adrenoceptors was evaluated using the isolated mouse spleen. The spleen was removed from male mice right after killing the anesthetized animal by cervical dislocation. […] The initial optimal tissues tension was set at 1.0 g. Through the 100 min of equilibration tissues were stimulated with noradrenaline (0.1−10.0 μM) three times with washing out until the contractile response become constant. Two cumulative concentration-response curves to noradrenaline, at an interval of 60 min, were established on each tissue both in the presence and absence of antagonist. The incubation with antagonists went on for 30 min. The experiments were carried out in the constant presence of propranolol (1 μM) to block β-adrenoceptors, and minimize the involvement of these adrenoceptors in the response to noradrenaline.
Data are means ± S.E.M. of at least 4 separate experiments. To establish Hill slopes for the agonist concentration–response curves and calculate EC50 values, curves were fitted to all the data by non-linear regression. The EC50 value in the presence and absence of antagonists was used to ascertain the concentration ratio (CR). Schild analysis was performed.

[1] = tested on: blood pressure in normotensive rats; assay: Influence on blood pressure in normotensive rats; assay type: in vivo, rat; set-up: Systolic pressure / Diastolic pressure: unit not given beside the values; settings: for Diastolic pressure / Systolic pressure: anesthetized normotensive rats
Method: The tested compounds were administered i.p. after 15 min of stabilization period. The compounds were administered at the dose 10 mg/kg.

normal ECG in rats = assay: The effect on normal electrocardiogram in rats; assay type: in vivo, rat; settings: anesthetized rats, i.p. at ED84
Method: The experiment was carried out to exclude the influence of tested compounds on normal ECG. […] The influence on QRS complex, PQ interval, heart rate (RR), and QTc interval was determined.

[2] = lowest hypotensive dose i.p., 5 min
[3] = lowest hypotensive dose i.p., 10 min
[4] = lowest hypotensive dose i.p., 20 min
[5] = lowest hypotensive dose i.p., 30 min
[6] = lowest hypotensive dose i.p., 40 min
[7] = lowest hypotensive dose i.p., 50 min
[8] = lowest hypotensive dose i.p., 60 min
[9] = lowest hypotensive dose i.p., Control (before administration)
[10] = normotensive rats, lowest hypotensive dose i.p., period of significant effect

In the case of `COc1ccccc1N1CCN(CCOCCOc2c(C)cccc2C)CC1.Cl` [HBK-14, 1-[(2,6-dimethylphenoxy)ethoxyethyl]-4-(2-methoxyphenyl)piperazine hydrochloride], the “Schild slope ± S.E.M., α1B” value (α1B-adrenoceptors) is reported as 1.03 ± 0.03, the Kb (α1B-adrenoceptors; read-out: pA2 ± S.E.M., α1B (converted)) is reported as 20 nM and the Diastolic pressure [1, 2] is reported as 105.2 ± 6.1. The Systolic pressure [1, 2] was 135.2 ± 7.3, the Diastolic pressure [1, 3] was 103.0 ± 5.8 and the Systolic pressure [1, 3] was 131.2 ± 6.8^c. The Diastolic pressure [1, 4] was 97.3 ± 6.0^c, the Systolic pressure [1, 4] was 127.3 ± 6.6^c and the Diastolic pressure [1, 5] was 95.2 ± 6.1^c. For the same molecule, the Systolic pressure [1, 5] was 125.3 ± 7.0^c, the Diastolic pressure [1, 6] was 92.3 ± 6.2^c and the Systolic pressure [1, 6] was 124.2 ± 7.0^c. The Diastolic pressure [1, 7] was 94.0 ± 5.8^c, the Systolic pressure [1, 7] was 127.3 ± 6.3^c and the Diastolic pressure [1, 8] was 98.0 ± 5.1^c. The Systolic pressure [1, 8] was 128.2 ± 5.4^c, the Diastolic pressure [1, 9] was 106.7 ± 4.3 and the Systolic pressure [1, 9] was 138.3 ± 6.8. The lowest hypotensive dose ([1]; normotensive rats, lowest dose significantly lowering systolic and diastolic blood pressure) was 0.625 mg/kg, the “reduction of diastolic blood pressure” value [1, 10] was 9−14% and the “reduction of systolic blood pressure” value [1, 10] was 5−10%. For the same molecule, the “influence on ECG parameters (PQ interval, QRS complex, QTc interval)” value (normal ECG in rats) was “did not influence the ECG parameters”, the “Beats/min (ECG)” value (normal ECG in rats; 0 min (initial values)) was 366.0 ± 10.8 Beats/min and the “PQ (ECG)” value (normal ECG in rats; 0 min (initial values)) was 47.1 ± 1.1 ms. For the same molecule, the “QRS (ECG)” value (normal ECG in rats; 0 min (initial values)) was 26.1 ± 0.7 ms, the “QT (ECG)” value (normal ECG in rats; 0 min (initial values)) was 85.8 ± 1.3 ms and the “QTc (ECG, Bazett)” value (normal ECG in rats; 0 min (initial values)) was 211.7 ± 3.2 ms. The “Beats/min (ECG)” value (normal ECG in rats; 5 min) was 369.8 ± 10.0 Beats/min, the “PQ (ECG)” value (normal ECG in rats; 5 min) was 46.0 ± 1.0 ms and the “QRS (ECG)” value (normal ECG in rats; 5 min) was 25.8 ± 0.5 ms. For the same molecule, the “QT (ECG)” value (normal ECG in rats; 5 min) was 85.0 ± 4.1 ms, the “QTc (ECG, Bazett)” value (normal ECG in rats; 5 min) was 209.2 ± 8.3 ms and the “Beats/min (ECG)” value (normal ECG in rats; 10 min) was 367.0 ± 9.9 Beats/min. The “PQ (ECG)” value (normal ECG in rats; 10 min) was 46.3 ± 0.9 ms, the “QRS (ECG)” value (normal ECG in rats; 10 min) was 27.6 ± 1.0 ms and the “QT (ECG)” value (normal ECG in rats; 10 min) was 88.7 ± 1.9 ms. For the same molecule, the “QTc (ECG, Bazett)” value (normal ECG in rats; 10 min) was 214.8 ± 5.0 ms, the “Beats/min (ECG)” value (normal ECG in rats; 15 min) was 359.8 ± 9.5 Beats/min and the “PQ (ECG)” value (normal ECG in rats; 15 min) was 47.5 ± 1.3 ms. For the same molecule, the “QRS (ECG)” value (normal ECG in rats; 15 min) was 27.0 ± 0.6 ms, the “QT (ECG)” value (normal ECG in rats; 15 min) was 89.0 ± 2.4 ms and the “QTc (ECG, Bazett)” value (normal ECG in rats; 15 min) was 212.9 ± 5.7 ms. The “Beats/min (ECG)” value (normal ECG in rats; 20 min) was 358.4 ± 11.4 Beats/min, the “PQ (ECG)” value (normal ECG in rats; 20 min) was 46.3 ± 1.0 ms and the “QRS (ECG)” value (normal ECG in rats; 20 min) was 26.3 ± 0.4 ms. The “QT (ECG)” value (normal ECG in rats; 20 min) was 88.2 ± 2.9 ms, the “QTc (ECG, Bazett)” value (normal ECG in rats; 20 min) was 212.5 ± 4.6 ms and the “Beats/min (ECG)” value (normal ECG in rats; 30 min) was 359.8 ± 9.6 Beats/min. The “PQ (ECG)” value (normal ECG in rats; 30 min) was 48.8 ± 1.9 ms, the “QRS (ECG)” value (normal ECG in rats; 30 min) was 26.7 ± 0.9 ms and the “QT (ECG)” value (normal ECG in rats; 30 min) was 89.6 ± 1.7 ms. The “QTc (ECG, Bazett)” value (normal ECG in rats; 30 min) was 214.1 ± 5.0 ms, the “Beats/min (ECG)” value (normal ECG in rats; 40 min) was 362.6 ± 11.9 Beats/min and the “PQ (ECG)” value (normal ECG in rats; 40 min) was 48.2 ± 2.1 ms. For the same molecule, the “QRS (ECG)” value (normal ECG in rats; 40 min) was 26.1 ± 0.4 ms, the “QT (ECG)” value (normal ECG in rats; 40 min) was 89.0 ± 2.1 ms and the “QTc (ECG, Bazett)” value (normal ECG in rats; 40 min) was 214.1 ± 5.2 ms. For the same molecule, the “Beats/min (ECG)” value (normal ECG in rats; 50 min) was 361.6 ± 12.6 Beats/min, the “PQ (ECG)” value (normal ECG in rats; 50 min) was 47.3 ± 1.6 ms and the “QRS (ECG)” value (normal ECG in rats; 50 min) was 26.7 ± 1.0 ms. The “QT (ECG)” value (normal ECG in rats; 50 min) was 87.9 ± 1.2 ms, the “QTc (ECG, Bazett)” value (normal ECG in rats; 50 min) was 210.9 ± 5.1 ms and the “Beats/min (ECG)” value (normal ECG in rats; 60 min) was 364.6 ± 11.2 Beats/min. The “PQ (ECG)” value (normal ECG in rats; 60 min) was 48.4 ± 0.9 ms, the “QRS (ECG)” value (normal ECG in rats; 60 min) was 27.5 ± 0.7 ms and the “QT (ECG)” value (normal ECG in rats; 60 min) was 89.5 ± 2.4 ms. For the same molecule, the “QTc (ECG, Bazett)” value (normal ECG in rats; 60 min) was 214.1 ± 4.2 ms.

Source: paper PMC4971072, “Chemically Homogenous Compounds with Antagonistic Properties at All α1-Adrenoceptor Subtypes but not β1-Adrenoceptor Attenuate Adrenaline-Induced Arrhythmia in Rats” (Frontiers in Pharmacology, 2016)
